{
  "source": "patent US20210275657A1",
  "about": "“NEOANTIGENS AND USES THEREOF” (BioNTech US Inc., priority 2018, published 2021)",
  "key": {"[1]": {"biological_target": "indicated HLA alleles (Homo sapiens, UniProt P01889)", "assay": "Affinity of GATA3 neoORF neoepitopes for the indicated HLA alleles (Example 9, Table 4)", "format": "binding", "method": "(§1) Multiple peptides containing the neoepitopes in Table 4 below were expressed or loaded onto antigen presenting cells (APCs). Mass spectrometry was then performed and the affinity of the neoepitopes for the indicated HLA alleles and stability of the neoepitopes with the HLA alleles was determined."}, "[2]": {"test_system": "indicated HLA alleles", "assay": "Stability of GATA3 neoORF neoepitopes with the HLA alleles (Example 9, Table 4)", "format": "binding, human", "method": "as §1"}, "[3]": {"biological_target": "T1, HLA-B07:02 (Homo sapiens, UniProt P01889)", "assay": "Affinity measurements, competition with radiolabeled peptide (Example 20)", "format": "binding"}, "[4]": {"biological_target": "T1, HLA-B07:02", "assay": "Stability measurements, pMHC-I dissociation with 125I light chain (Example 20)", "format": "binding", "method": "(§2) To measure the binding stability of peptides to Class I MHC, synthetic genes encoding biotinylated MHC-I heavy and light chains are expressed in E. coli and purified from inclusion bodies using standard methods. […] These reactions were carried out in streptavidin coated microplates to bind the biotinylated MHC-I heavy chains to the surface and allow measurement of radiolabeled light chain to monitor complex formation. Dissociation was initiated by addition of higher concentrations of unlabeled light-chain and incubation at 37° C. Stability was defined as the length of time in hours it takes for half of the complexes to dissociate, as measured by scintillation counts. Duplicate measurements were performed. The average of the two measurements was taken as the stability."}, "[5]": {"biological_target": "T2, HLA-B08:01 (Homo sapiens, UniProt P01889, A93T/A95T/D138N/E176V/E187T/K202T/Q94N/R180D/S35A/V36M/Y33D/Y91F)", "assay": "Stability measurements, pMHC-I dissociation with 125I light chain (Example 20)", "format": "binding", "settings": "for Average half-life: average of experiments 1 and 2", "method": "as §2"}, "[6]": {"biological_target": "indicated HLA alleles", "assay": "Affinity of mutant EGFR neopeptides for indicated HLA alleles", "format": "binding, human"}, "[7]": {"test_system": "indicated HLA alleles", "assay": "Stability of mutant EGFR neopeptides with the HLA alleles", "format": "binding, human", "method": "(§3) Multiple peptides containing neoepitopes in the table below were either expressed or loaded onto antigen presenting cells. Mass spectrometry was then performed and the affinity of the neoepitopes for indicated HLA alleles were determined, and the stability of the neoepitopes with the HLA alleles were determined."}, "[8]": {"biological_target": "T2, HLA-B08:01", "assay": "biochemical"}, "[9]": {"biological_target": "indicated HLA alleles", "assay": "Affinity of GATA3 neoORF neoepitopes for the indicated HLA alleles (Example 9, Table 4)", "format": "binding, human", "settings": "read-out: Observed MHC affinity", "method": "as §1"}, "[10]": {"biological_target": "indicated HLA alleles", "assay": "Affinity of mutant BTK neopeptides for indicated HLA alleles", "format": "binding, human", "settings": "BTK, C481S; HLA A24.02", "method": "as §3"}, "[11]": {"test_system": "indicated HLA alleles", "assay": "Stability of mutant BTK neopeptides with the HLA alleles", "format": "binding, human", "settings": "BTK, C481S; HLA A24.02", "method": "as §3"}},
  "note": "Where no end group is shown, it is not given here.",
  "data": [
    {"compound": "CSCC[C@H](N)C(=O)N[C@@H](Cc1ccccc1)C(=O)N[C@@H](C)C(=O)N[C@H](C(=O)N[C@@H](CC(C)C)C(=O)N[C@@H](CCC(N)=O)C(=O)N[C@@H](CCCNC(=N)N)C(=O)N[C@@H](CO)C(=O)N[C@@H](CO)C(=O)N[C@@H](CC(C)C)C(=O)O)[C@@H](C)O", "values": [
      {"measurement": "Kd", "setting": "[1]", "result": 267, "unit": "nM"},
      {"measurement": "Observed MHC stability", "setting": "[2]; Allele B07:02", "result": 0, "unit": "h"},
      {"measurement": "Observed MHC stability", "setting": "[2]; Allele B08:01", "result": 0, "unit": "h"},
      {"measurement": "IC50", "setting": "[3]", "result": 350, "unit": "nM"},
      {"measurement": "Experiment 2 half-life", "setting": "[4]", "result": 0.0, "unit": "h"},
      {"measurement": "Average half-life", "setting": "[4]; average of experiments 1 and 2", "result": 0.0, "unit": "h"},
      {"measurement": "Experiment 2 half-life", "setting": "[5]", "result": 0, "unit": "min"},
      {"measurement": "Average half-life", "setting": "[5]", "result": 0, "unit": "min"}
    ]},
    {"compound": "CC(C)C[C@H](NC(=O)[C@@H]1CCCN1C(=O)[C@H](CCC(N)=O)NC(=O)[C@H](CC(C)C)NC(=O)[C@H](C)NC(=O)[C@H](CC(C)C)NC(=O)[C@H](Cc1c[nH]cn1)NC(=O)[C@@H]1CCCN1C(=O)[C@@H](N)CCC(=O)O)C(=O)O", "values": [
      {"measurement": "Kd", "setting": "[1]", "result": 17, "unit": "nM"},
      {"measurement": "Observed MHC stability", "setting": "[2]; Allele B07:02", "result": 7.2, "unit": "h"},
      {"measurement": "Observed MHC stability", "setting": "[2]; Allele B08:01", "result": 0, "unit": "h"}
    ]},
    {"compound": "LTSTVQLIM", "values": [
      {"measurement": "Kd", "setting": "[6]; EGFR T790M, HLA A01.01", "result": 2890, "unit": "nM"},
      {"measurement": "Stability (1/2 hr)", "setting": "[7]; EGFR T790M, HLA A01.01", "result": 0.1037, "unit": "h"}
    ]},
    {"compound": "CC[C@H](C)[C@H](N)C(=O)N[C@@H](CCSC)C(=O)N[C@@H](CCCCN)C(=O)N1CCC[C@H]1C(=O)N[C@@H](CCCCN)C(=O)N[C@@H](CCCNC(=N)N)C(=O)N[C@@H](CC(=O)O)C(=O)NCC(=O)N[C@@H](Cc1ccc(O)cc1)C(=O)N[C@@H](CCSC)C(=O)O", "values": [
      {"measurement": "Observed MHC stability", "setting": "[2]; Allele B08:01", "result": 0.4, "unit": "h"},
      {"measurement": "Experiment 1 half-life", "setting": "[5]", "result": 24, "unit": "min"},
      {"measurement": "Experiment 2 half-life", "setting": "[5]", "result": 24, "unit": "min"},
      {"measurement": "Average half-life", "setting": "[5]", "result": 24, "unit": "min"},
      {"measurement": "IC50", "setting": "[8]", "result": 40.2, "unit": "nM"}
    ]},
    {"compound": "ALQPLQPHA", "values": [
      {"measurement": "Kd", "setting": "[9]; Allele A02.01", "result": 604, "unit": "nM"},
      {"measurement": "Observed MHC stability", "setting": "[2]; Allele A02.01", "result": 1.5, "unit": "h"}
    ]},
    {"compound": "CC[C@H](C)[C@H](NC(=O)[C@H](CCCCN)NC(=O)[C@H](CO)NC(=O)[C@H](CCC(=O)O)NC(=O)[C@H](C)NC(=O)[C@H](CCCCN)NC(=O)[C@H](CC(C)C)NC(=O)[C@@H](N)Cc1ccccc1)C(=O)N[C@@H](CCSC)C(=O)N[C@@H](Cc1ccccc1)C(=O)O", "values": [
      {"measurement": "Observed MHC stability", "setting": "[2]; Allele B08:01", "result": 0, "unit": "h"},
      {"measurement": "Experiment 2 half-life", "setting": "[5]", "result": 0, "unit": "min"},
      {"measurement": "Average half-life", "setting": "[5]", "result": 0, "unit": "min"},
      {"measurement": "IC50", "setting": "[8]", "result": 90, "unit": "nM"}
    ]},
    {"compound": "CC[C@H](C)[C@H](NC(=O)[C@H](CC(C)C)NC(=O)[C@H](CCC(N)=O)NC(=O)[C@@H](NC(=O)[C@@H](NC(=O)[C@H](CO)NC(=O)[C@@H](NC(=O)[C@H](CC(C)C)NC(=O)[C@@H](N)CS)[C@@H](C)O)[C@@H](C)O)C(C)C)C(=O)N[C@@H](CCSC)C(=O)O", "values": [
      {"measurement": "Kd", "setting": "[6]; EGFR T790M, HLA A01.01", "result": 8280, "unit": "nM"},
      {"measurement": "Kd", "setting": "[6]; EGFR_T790M, HLA A02.01", "result": 537, "unit": "nM"},
      {"measurement": "Stability (1/2 hr)", "setting": "[7]; EGFR T790M, HLA A01.01", "result": 0, "unit": "h"},
      {"measurement": "Stability (1/2 hr)", "setting": "[7]; EGFR_T790M, HLA A02.01", "result": 0, "unit": "h"}
    ]},
    {"compound": "MFLKAESKI", "values": [
      {"measurement": "Kd", "setting": "[9]; Allele A24:02", "result": 332, "unit": "nM"},
      {"measurement": "Observed MHC stability", "setting": "[2]; Allele A24:02", "result": 0.2, "unit": "h"}
    ]},
    {"compound": "EYMANGSLL", "values": [
      {"measurement": "Kd", "setting": "[10]", "result": 4.96, "unit": "nM"},
      {"measurement": "Stability (1/2 hr)", "setting": "[11]", "result": 5.716, "unit": "h"}
    ]},
    {"compound": "QPVLWTTPPL", "values": [
      {"measurement": "Kd", "setting": "[1]", "result": 109, "unit": "nM"},
      {"measurement": "Observed MHC stability", "setting": "[2]; Allele B07:02", "result": 1.4, "unit": "h"}
    ]},
    {"compound": "CC[C@H](C)[C@H](NC(=O)[C@@H](N)CC(C)C)C(=O)N[C@@H](CCSC)C(=O)N[C@@H](CCC(N)=O)C(=O)N[C@@H](CC(C)C)C(=O)N[C@@H](CCSC)C(=O)N1CCC[C@H]1C(=O)N[C@@H](Cc1ccccc1)C(=O)NCC(=O)N[C@@H](CS)C(=O)O", "values": [
      {"measurement": "Kd", "setting": "[6]; EGFR_T790M, HLA A02.01", "result": 132, "unit": "nM"},
      {"measurement": "Stability (1/2 hr)", "setting": "[7]; EGFR_T790M, HLA A02.01", "result": 0.3813, "unit": "h"}
    ]}
  ]
}
